Experiments:
Assay type in all cases: in vivo
[1] = system: Echinochloa crus-galli (ECHCG); assay: Example A pre-emergence herbicidal glasshouse test; conditions: 312 h, Rate 250 g/ha, evaluated after 13 days, 100=total damage to plant, 0=no damage to plant
Procedure: (§1) Seeds of a variety of test species were sown in standard soil in pots. After cultivation for one day (pre-emergence) or after 8 days cultivation (post-emergence) under controlled conditions in a glasshouse (at 24/16° C., day/night; 14 hours light; 65% humidity), the plants were sprayed with an aqueous spray solution derived from the formulation of the technical active ingredient in acetone/water (50:50) solution containing 0.5% Tween 20 (polyoxyethelyene sorbitan monolaurate, CAS RN 9005-64-5). The test plants were then grown in a glasshouse under controlled conditions in a glasshouse (at 24/16° C., day/night; 14 hours light; 65% humidity) and watered twice daily. After 13 days for pre and post-emergence, the test was evaluated (100=total damage to plant; 0=no damage to plant).
(§2) Alopecurus myosuroides (ALOMY), Avena fatua (AVEFA), Setaria faberi (SETFA), Echinochloa crus-galli (ECHCG), Solanum nigrum (SOLNI) and Amaranthus retroflexus (AMARE)

Setaria faberi (SETFA) [2] = assay: Example A pre-emergence herbicidal glasshouse test; conditions: 312 h, Rate 250 g/ha, evaluated after 13 days, 100=total damage to plant, 0=no damage to plant
Procedure: as §1, §2

Avena fatua (AVEFA) [3] = assay: Example A pre-emergence herbicidal glasshouse test; conditions: 312 h, Rate 250 g/ha, evaluated after 13 days, 100=total damage to plant, 0=no damage to plant
Procedure: as §1, §2

[4] = system: Alopecurus myosuroides (ALOMY); assay: Example A pre-emergence herbicidal glasshouse test; conditions: 312 h, Rate 250 g/ha, evaluated after 13 days, 100=total damage to plant, 0=no damage to plant
Procedure: as §1, §2

[5] = system: Amaranthus retroflexus (AMARE); assay: Example A pre-emergence herbicidal glasshouse test; conditions: 312 h, Rate 250 g/ha, evaluated after 13 days, 100=total damage to plant, 0=no damage to plant
Procedure: as §1, §2

[6] = system: Echinochloa crus-galli (ECHCG); assay: Example A post-emergence herbicidal glasshouse test; conditions: 312 h, evaluated after 13 days, 100=total damage to plant, 0=no damage
Procedure: as §1, §2

Setaria faberi (SETFA) [7] = assay: as above; conditions: 312 h, evaluated after 13 days, 100=total damage to plant, 0=no damage
Procedure: as §1, §2

Avena fatua (AVEFA) [8] = assay: as above; conditions: 312 h, evaluated after 13 days, 100=total damage to plant, 0=no damage
Procedure: as §1, §2

[9] = system: Alopecurus myosuroides (ALOMY); assay: as above; conditions: 312 h, evaluated after 13 days, 100=total damage to plant, 0=no damage
Procedure: as §1, §2

[10] = system: Amaranthus retroflexus (AMARE); assay: as above; conditions: 312 h, evaluated after 13 days, 100=total damage to plant, 0=no damage
Procedure: as §1, §2

SMILES	pest or weed control at 250 g/ha [1] [%]	pest or weed control at 250 g/ha (Setaria faberi (SETFA) [2]) [%]	pest or weed control at 250 g/ha (Avena fatua (AVEFA) [3]) [%]	pest or weed control at 250 g/ha [4] [%]	pest or weed control at 250 g/ha [5] [%]	pest or weed control at 250 g/ha [6] [%]	pest or weed control at 250 g/ha (Setaria faberi (SETFA) [7]) [%]	pest or weed control at 250 g/ha (Avena fatua (AVEFA) [8]) [%]	pest or weed control at 250 g/ha [9] [%]	pest or weed control at 250 g/ha [10] [%]
CCc1ccc(-c2cc(Cl)ccc2OC)cc1C1=C(O)[C@H]2CC[C@H](C2)C1=O (single isomer, unassigned) [Compound T40]	0	0	0	0	0	0	0	0	0	0
Cc1ccc(-c2ccc(Cl)cc2C(F)(F)F)cc1C1=C(O)[C@H]2CC[C@H](C2)C1=O (single isomer, unassigned) [Compound T42]	0	0	0	0	0	0	0	0	0	0
CCc1ccc(-c2ccc(Cl)cc2C(F)(F)F)cc1C1=C(O)[C@H]2CC[C@H](C2)C1=O (single isomer, unassigned) [Compound T45]	0	0	0	0	0	60	70	0	30	0
Cc1ccc(-c2cccc(Cl)c2F)cc1C1=C(O)[C@H]2CC[C@H](C2)C1=O (single isomer, unassigned) [Compound T46]	0	0	0	0	0	0	0	0	0	0
Cc1ccc(-c2cc(F)cc(Cl)c2)cc1C1=C(O)[C@H]2CC[C@H](C2)C1=O (single isomer, unassigned) [Compound T47]	0	0	0	0	0	30	0	0	0	0
Cc1ccc(-c2cccc(Cl)c2C)cc1C1=C(O)[C@H]2CC[C@H](C2)C1=O (single isomer, unassigned) [Compound T48]	0	0	0	0	0	40	40	20	0	0
Cc1ccc(-c2ccc(C)c(C3=C(O)[C@H]4CC[C@H](C4)C3=O)c2)cc1Cl (single isomer, unassigned) [Compound T49]	30	0	0	0	0	30	30	0	0	0
Cc1ccc(-c2cc(Cl)ccc2C)cc1C1=C(O)[C@H]2CC[C@H](C2)C1=O (single isomer, unassigned) [Compound T50]	0	0	0	0	0	30	0	0	0	0
Cc1ccc(-c2cc(Cl)ccc2Cl)cc1C1=C(O)[C@H]2CC[C@H](C2)C1=O (single isomer, unassigned) [Compound T51]	0	0	0	0	0	0	0	0	0	0
Cc1cc(-c2ccccc2)ccc1C1=C(O)[C@H]2CC[C@H](C2)C1=O (single isomer, unassigned) [Compound T58]	40	20	0	10	30	70	100	0	60	0
CCc1cc(-c2ccc(C)cc2)ccc1C1=C(O)[C@H]2CC[C@H](C2)C1=O (single isomer, unassigned) [Compound T60]	100	100	30	60	0	100	100	50	90	0
CCc1ccc(-c2cnc(Cl)cc2C)cc1C1=C(O)[C@H]2CC[C@H](C2)C1=O (single isomer, unassigned) [Compound T77]	0	30	0	0	0	80	90	0	30	0
CCc1ccc(-c2ccc(Cl)nc2)cc1C1=C(O)[C@H]2CC[C@H](C2)C1=O (single isomer, unassigned) [Compound T78]	60	90	30	40	0	100	100	60	70	0
CCc1ccc(-c2ccc(Cl)nc2C)cc1C1=C(O)[C@H]2CC[C@H](C2)C1=O (single isomer, unassigned) [Compound T79]	0	70	0	0	0	90	100	20	40	0
